Results from PubChem BioAssay AID248 (DTP/NCI, 2004).
Where “and” joins values, the source holds several entries; their conditions need not be identical. Equal entries are not always repeated. Toxic doses and inconclusive results are not listed. Cut-off read from the data, not from the text of the source: active = T/C of 150% or more; inactive = T/C below 125%.

Tested on: L1210 leukemia ip in BDF1 mice, survival T/C
Assay: NCI In Vivo Anticancer Drug Screen. Data for tumor model L1210 Leukemia (intraperitoneal) in B6D2F1 (BDF1) mice
Settings: endpoint: mean survival time, higher = longer survival
Outline: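 Tumor cells were implanted, animals were treated, and survival was followed. The result divides the treated measurement by the vehicle-control measurement.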

[1] = dose: 12.5 mg/kg/injection, schedule: Q01DX001 (ip), vehicle: saline
[2] = dose: 25.0 mg/kg/injection, schedule: Q01DX001 (ip), vehicle: saline
[3] = dose: 100.0 mg/kg/injection, schedule: Q04DX002 (ip), vehicle: saline
[4] = dose: 200.0 mg/kg/injection, schedule: Q04DX002 (ip), vehicle: saline
[5] = dose: 400.0 mg/kg/injection, schedule: Q04DX002 (ip), vehicle: saline
[6] = dose: 100.0 mg/kg/injection, schedule: Q01DX001 (ip), vehicle: carboxymethylcellulose (CMC)
[7] = dose: 100.0 mg/kg/injection, schedule: Q04DX003 (ip), vehicle: Klucel (hydroxypropylcellulose) (HPC)
[8] = dose: 200.0 mg/kg/injection, schedule: Q01DX001 (ip), vehicle: carboxymethylcellulose (CMC)
[9] = dose: 200.0 mg/kg/injection, schedule: Q04DX003 (ip), vehicle: Klucel (hydroxypropylcellulose) (HPC)
[10] = dose: 400.0 mg/kg/injection, schedule: Q01DX001 (ip), vehicle: carboxymethylcellulose (CMC)
[11] = dose: 100.0 mg/kg/injection, schedule: Q01DX009 (ip), vehicle: saline
[12] = dose: 400.0 mg/kg/injection, schedule: Q04DX003 (ip), vehicle: Klucel (hydroxypropylcellulose) (HPC)
[13] = dose: 50.0 mg/kg/injection, schedule: Q01DX001 (ip), vehicle: carboxymethylcellulose (CMC)
[14] = dose: 50.0 mg/kg/injection, schedule: Q01DX009 (ip), vehicle: saline with Tween-80
[15] = dose: 100.0 mg/kg/injection, schedule: Q01DX009 (ip), vehicle: saline with Tween-80
[16] = dose: 200.0 mg/kg/injection, schedule: Q01DX009 (ip), vehicle: saline with Tween-80
[17] = dose: 100.0 mg/kg/injection, schedule: Q01DX009 (ip), vehicle: Klucel (hydroxypropylcellulose) (HPC)
[18] = dose: 100.0 mg/kg/injection, schedule: Q04DX003 (ip), vehicle: saline
[19] = dose: 200.0 mg/kg/injection, schedule: Q01DX009 (ip), vehicle: Klucel (hydroxypropylcellulose) (HPC)
[20] = dose: 200.0 mg/kg/injection, schedule: Q04DX003 (ip), vehicle: saline
[21] = dose: 400.0 mg/kg/injection, schedule: Q01DX009 (ip), vehicle: Klucel (hydroxypropylcellulose) (HPC)
[22] = dose: 400.0 mg/kg/injection, schedule: Q04DX003 (ip), vehicle: saline
[23] = dose: 100.0 mg/kg/injection, schedule: Q04DX003 (ip), vehicle: saline with Tween-80
[24] = dose: 200.0 mg/kg/injection, schedule: Q04DX003 (ip), vehicle: saline with Tween-80
[25] = dose: 400.0 mg/kg/injection, schedule: Q01DX009 (ip), vehicle: saline with Tween-80
[26] = dose: 400.0 mg/kg/injection, schedule: Q04DX003 (ip), vehicle: saline with Tween-80
[27] = dose: 100.0 mg/kg/injection, schedule: Q01DX001 (ip), vehicle: saline
[28] = dose: 200.0 mg/kg/injection, schedule: Q01DX001 (ip), vehicle: saline
[29] = dose: 400.0 mg/kg/injection, schedule: Q01DX001 (ip), vehicle: saline

Measured: T/C

CC1(C)Oc2[nH]c(=O)n(-c3ccccc3)c(=O)c2C1c1ccc(Cl)cc1 (stereo not drawn)
inactive: [1] 94 % of control | dose: 12.5 mg/kg/injection, schedule: Q04DX003 (ip), vehicle: acetone 103 % of control | [2] 97 % of control | dose: 25.0 mg/kg/injection, schedule: Q04DX003 (ip), vehicle: acetone 86 % of control | dose: 35.0 mg/kg/injection, schedule: Q01DX009 (ip), vehicle: saline 94 % of control | dose: 50.0 mg/kg/injection, schedule: Q01DX001 (ip), vehicle: saline 92 % of control | dose: 55.0 mg/kg/injection, schedule: Q01DX009 (ip), vehicle: saline 96 % of control | dose: 80.0 mg/kg/injection, schedule: Q01DX009 (ip), vehicle: saline 106 % of control

O=c1[nH]cc(COCC(F)(F)F)c(=O)[nH]1
inactive: dose: 50.0 mg/kg/injection, schedule: Q01DX005 (ip), vehicle: other 106 % of control | dose: 100.0 mg/kg/injection, schedule: Q01DX005 (ip), vehicle: other 95 % of control | dose: 200.0 mg/kg/injection, schedule: Q01DX005 (ip), vehicle: other 106 % of control

CCCCC(=O)N1CCOCC1
inactive: [3] 107 % of control | [4] 101 % of control | [5] 107 % of control

C[N+](C)(CCl)C1CCCCC1
inactive: dose: 75.0 mg/kg/injection, schedule: Q01DX001 (ip), vehicle: saline 107 % of control

CCCC(=O)C(CC)C(=O)Nc1ccccc1 (stereo not drawn)
inactive: dose: 50.0 mg/kg/injection, schedule: Q04DX003 (ip), vehicle: Klucel (hydroxypropylcellulose) (HPC) 100 % of control | [6] 94 % of control | [7] 93 % of control | [8] 105 % of control | [9] 102 % of control | [10] 100 % of control

CC(C)(C)C1=CC(C)([N+](=O)[O-])C=C(C(C)(C)C)C1=O
inactive: [6] 88 % of control | [8] 89 % of control | [10] 88 % of control

CCCCCCCCCCCCNC=O
inactive: [11] 94 % of control

CC(=O)NCCCOc1ccc([N+](=O)[O-])cc1
inactive: [7] 101 % of control | [9] 91 % of control | [12] 92 % of control

COc1cc(C)c(C(=O)c2ccccc2N)cc1OC
inactive: [6] 105 % of control | [8] 118 % of control | [10] 96 % of control

CCOC(=O)C1CC2(c3ccccc3)C(=O)C1(c1ccccc1)C(c1ccccc1)=C2c1ccccc1 (stereo not drawn)
inactive: [13] 100 % of control | [6] 94 % of control | [8] 100 % of control | [10] 97 % of control

CCOC(=O)c1cnc(SC)nc1Nc1ccc(F)cc1
inactive: [7] 88 % of control | [9] 100 % of control | [12] 95 % of control

O=C(N/N=C\c1ccc(/C=N\NC(=O)c2ccc(O)cc2)cc1)c1ccc(O)cc1
inactive: [14] 112 % of control | [15] 94 % of control | [16] 105 % of control

O=[N+]([O-])c1cccc(OCCCCOc2ccccc2)c1
inactive: [17] 98 % of control | [18] 100 % of control | [19] 101 % of control | [20] 101 % of control | [21] 102 % of control | [22] 95 % of control

O=C1/C(=C\C=C\c2ccccc2)CCCC/C1=C\C=C\c1ccccc1
inactive: [13] 97 % of control | [6] 90 % of control | [8] 97 % of control | [10] 92 % of control

NC(=O)CC(NC(=O)OCc1ccccc1)C(=O)OCc1ccccc1 (stereo not drawn)
inactive: [15] 106 % of control | [23] 96 % of control | [16] 95 % of control | [24] 96 % of control | [25] 93 % of control | [26] 91 % of control

CC(=O)OCCC#CCCCO
inactive: [15] 90 % of control | [16] 98 % of control | [25] 97 % of control

CCNC(=O)N=C1SCCS1
inactive: [3] 118 % of control | [4] 118 % of control | [5] 96 % of control

O=C(CC(O)(C(F)(F)F)C(F)(F)F)c1ccc(-c2ccccc2)cc1
inactive: [14] 96 % of control | dose: 50.0 mg/kg/injection, schedule: Q04DX003 (ip), vehicle: saline with Tween-80 101 % of control | [15] 98 % of control | [23] 104 % of control | [16] 100 % of control | [24] 97 % of control | [25] 101 % of control | [26] 93 % of control

CC(C)=CC(=O)CNC(N)=S
inactive: [7] 100 % of control and 98 % of control | [9] 101 % of control | [12] 93 % of control

O=C(O)c1ccc(S(=O)(=O)O)cc1
inactive: [11] 100 % of control | dose: 200.0 mg/kg/injection, schedule: Q01DX009 (ip), vehicle: saline 97 % of control | dose: 400.0 mg/kg/injection, schedule: Q01DX009 (ip), vehicle: saline 101 % of control

Cc1cc(Cl)nc(Cl)c1C#N
inactive: [17] 101 % of control | [7] 100 % of control | [19] 97 % of control | [9] 89 % of control

CCC1(C)OC(=O)NC1=O (stereo not drawn)
inactive: [14] 96 % of control | [15] 101 % of control | [16] 86 % of control

C=C(Cl)CSC(=N)N
inactive: dose: 10.0 mg/kg/injection, schedule: Q01DX009 (ip), vehicle: saline 109 % of control | dose: 12.0 mg/kg/injection, schedule: Q01DX009 (ip), vehicle: Klucel (hydroxypropylcellulose) (HPC) 88 % of control | dose: 20.0 mg/kg/injection, schedule: Q01DX009 (ip), vehicle: saline 101 % of control | dose: 25.0 mg/kg/injection, schedule: Q01DX009 (ip), vehicle: Klucel (hydroxypropylcellulose) (HPC) 103 % of control | [18] 108 % of control | [20] 106 % of control | [22] 104 % of control

CC(C)=Nc1cccc(B(O)O)c1
inactive: [27] 98 % of control | [28] 88 % of control | [29] 95 % of control

O=C(C#CC(=O)[O][Sn]([c]1ccccc1)([c]1ccccc1)[c]1ccccc1)[O][Sn]([c]1ccccc1)([c]1ccccc1)[c]1ccccc1
inactive: dose: 6.25 mg/kg/injection, schedule: Q01DX001 (ip), vehicle: saline 90 % of control | [1] 95 % of control | [2] 100 % of control | dose: 35.0 mg/kg/injection, schedule: Q01DX001 (ip), vehicle: Klucel (hydroxypropylcellulose) (HPC) 91 % of control

CCOC(=O)C(C)Cl (stereo not drawn)
inactive: [17] 97 % of control | [7] 103 % of control | [19] 96 % of control | [9] 103 % of control | [12] 103 % of control

Nc1nc(-c2ccccc2)cc(=O)[nH]1
inactive: [17] 88 % of control | [19] 97 % of control | [21] 93 % of control

CC(C)(C)C1=C[P+](c2ccccc2)(c2ccccc2)C(C(C)(C)C)=C[P+]1(c1ccccc1)c1ccccc1
inactive: dose: 12.5 mg/kg/injection, schedule: Q01DX009 (ip), vehicle: saline 94 % of control | dose: 12.5 mg/kg/injection, schedule: Q04DX003 (ip), vehicle: saline 96 % of control | dose: 25.0 mg/kg/injection, schedule: Q01DX009 (ip), vehicle: saline 104 % of control | dose: 25.0 mg/kg/injection, schedule: Q04DX003 (ip), vehicle: saline 122 % of control | dose: 50.0 mg/kg/injection, schedule: Q01DX009 (ip), vehicle: saline 100 % of control | dose: 50.0 mg/kg/injection, schedule: Q04DX003 (ip), vehicle: saline 108 % of control

O=C1c2ccccc2C(=O)N1C/C=C/CN1C(=O)c2ccccc2C1=O
inactive: [27] 95 % of control | [18] 101 % of control | [28] 98 % of control | [20] 104 % of control | [29] 91 % of control | [22] 102 % of control

CC(C)=Cc1ccccc1
inactive: [15] 98 % of control | [23] 95 % of control | [16] 93 % of control | [24] 87 % of control | [26] 94 % of control
